Test results reported in patent US10017535B2, “Amphiphilic compounds with neuroprotective properties” (USTAV ORGANICKE CHEMIE A BIOCHEMIE AV CR, v.v.i., priority 2014, dated 2018).
Like-named read-outs stand apart in the source and are kept apart here.

Columns and labels:
[1] = test system: laboratory mice, strain CD-1; assay type: in vivo; conditions: intraperitoneally, 1 mg/kg; note: key: −: the desired effect was not observed; −/+: the desired effect was insufficient; +: the desired effect was observed
Method: (§1) In the Experimental Part 1 were used adults (30-35 g) male laboratory mice, strain CD-1 from Velaz facility, Czech Republic. Mice were housed in plastic boxes with a 12-hour light cycle (lights on at 7:00 pm). Mice had free access to food and water.
Thus there were prepared solutions of the four steroids for application rates of 0.1, 1, 10 and 100 mg/kg.
Laboratory mouse was chosen as a model organism for this experiment. The following experiments were performed as described in Front Behay. Neurosci.
The purpose of the primary behavioral testing was quickly determined the effect of compounds on CNS dependent functions and any signs of toxicity. A simplified modification Irwin test was selected with respect to the behavioral profile of NMDA receptor antagonists. Mice were tested individually. The study drug was administered intraperitoneally (Table 3) at a dose of 1 mg/kg. The control group consisted of individuals that received the CDX solution or saline.

[2] = test system: laboratory mice, strain CD-1; test: Open field test (locomotor activity, sedative effect); for Open Field Test No Evidence of Hyperlocomotion: key: −: the desired effect was not observed; −/+: the desired effect was insufficient; +: the desired effect was observed; for Sedative Effect The Rapid Onset of Sedation at a Dose of 100 mg/kg: key: −: the desired effect was not observed; −/+: the desired effect was insufficient; +: the desired effect was observed; assay type: in vivo; conditions: for pathway in open field: dose 10 and 100 mg/kg, vs intact mice; for locomotor activity over time: higher dose of 10 resp. 100 mg/kg; for Open Field Test No Evidence of Hyperlocomotion / Sedative Effect The Rapid Onset of Sedation at a Dose of 100 mg/kg: intraperitoneally; for Open Field Test No Evidence of Hyperlocomotion: 0.1-100 mg/kg; for hyperlocomotion in open field: lower doses (below 10 mg/kg)
Method: as §1
Amphiphilic steroid compounds were dissolved in a solution of 3 g (2-hydroxypropyl)-β-cyclodextrin (CDX, Sigma-Aldrich) and 157 mg of citric acid ([…], Sigma-Aldrich) in 30 ml of distilled water, the pH was adjusted to 7.4 using sodium hydroxide (NaOH, Sigma-Aldrich). Thus there were prepared solutions of the four steroids for application rates of 0.1, 1, 10 and 100 mg/kg.
The efficacy of the studied compounds was compared to known NMDA antagonist is memantine (Sigma-Aldrich) at a dose of 5 mg/kg in rats, ketamine (Vétoquinol) at 10 mg/kg and dizocilpine (MK-801) (Sigma-Aldrich) at a dose of 0.3 mg/kg in mice. These three compounds were dissolved in saline (B Braun).
The substances at dose 0.1-100 mg/kg were administered before the test to mice intraperitoneally. As controls were used intact mice and mice that received CDX solution. Also, MK-801 (0.3 mg/kg) was used for comparison of effects of noncompetitive antagonist of NMDA receptors. From the experiment was evaluated overall track anywhere in the arena as an indicator of locomotor activity. In addition, it was judged a ten-minute segments track during each experiment. Based on these values, it was possible to determine the latency time of onset of action and changes in locomotor activity over time.
In this arrangement, the sedative effect of the studied compounds at the highest dose was evaluated. […] Over time was monitored locomotor activity and possible changes characterized by tremor, ataxia, restlessness, or sedation or general anesthesia (absence of response to stimuli, decreased muscle tone).

[3] = test system: NMDA lesion of the dorsal hippocampus in rats; test: Active allothetic place avoidance (AAPA) after bilateral excitotoxic NMDA lesion of dorsal hippocampus; assay type: in vivo, rat Long-Evans strain; conditions: for maximum time avoiding the sector, fourth session of AAPA / number of entries into the forbidden sector, fourth session of AAPA: 1 mg/kg after surgery, vs NMDA group; for NMDA lession Improvement in Cognition in AAPA after NMDA Lession: key: −: the desired effect was not observed; −/+: the desired effect was insufficient; +: the desired effect was observed
Method: In the Experimental Part 2 were used adult (3 months old, 300-400 g) male rat Long-Evans strain. The animals come from herds Institute of Physiology ASCR. The rats were housed in clear plastic boxes with the same light cycle as in mice. Animals had free access to food and water. All experiments were carried out in the light of clay. All experiments were carried out in accordance with the Law on protection of animals against cruelty.
The anesthetized rats were used in operations isoflurane (3.5%, Baxter). To recall excitotoxic lesion of the dorsal hippocampus was applied 0.05 mol·l^−1 solution of NMDA (Sigma-Aldrich) in 0.4 mol·l^−1 phosphate buffer solution prepared by mixing 356 g Na2HPO4.12H2O (Mw358.14) in 4.2 l of distilled water and a solution of 62.4 g NaHPO4. 2H2O (Mw156.01) in 0.8 l of distilled water. The pH of the resulting solution of NMDA was adjusted to 7.4 with NaOH.
In this experiment, the neuroprotective effects were evaluated for amphiphilic steroid compounds. The procedure was performed according to Neuropharmacology 61, 61-68 (2011)
The rats were randomly divided into eleven groups. The control group included operated animals, which were injected by phosphate buffer […] into the hippocampus. In the second group, the animals had NMDA lesions of the hippocampus. The animals of the third group were applied clinically used NMDA antagonist memantine at a dose of 5 mg/kg after NMDA lesion. The other groups were administered the compounds at a dose of 1 mg/kg.
The test was performed in rotating arena with prohibited sector in the form of a circular sector (60°). If the rat entered the sector, its limbs received weak electrical impulse.
Test memory and spatial cognition in rats using AAPA was evaluated over four sessions, which are in healthy rats sufficient to achieve asymptotic level (Behay. Brain. Res. 189, 139-144 (2008)). To evaluate memory and spatial cognition was used data from the fourth session, and the number of entries into the forbidden sector and the maximum avoidance sector. […] After the experiment, the localization of the lesion was histologically verified.
Data were analyzed using the non parametric test of Maim Whitney criteria using the GraphPad. The difference was considered significant for p<0.05, for a non-significant tendency then for 0.05<p<0.075.

[4] = target: T1, NR1-1a/NR2B NMDA receptor (Rattus norvegicus, UniProt P35439+Q00960); test: Patch-clamp inhibition of glutamate-evoked currents at recombinant NMDA receptors in transfected HEK293 cells; assay type: cell-based; conditions: for IC50: calculated from relative steroid-induced inhibition, Hill's coefficient 1.2, read-out: IC50
T1 construct: expressed in transfected cells; host or cells: HEK293 cells (ATCC CRL1573)
T1 sequence (Q00960 27-1482, other chains not shown): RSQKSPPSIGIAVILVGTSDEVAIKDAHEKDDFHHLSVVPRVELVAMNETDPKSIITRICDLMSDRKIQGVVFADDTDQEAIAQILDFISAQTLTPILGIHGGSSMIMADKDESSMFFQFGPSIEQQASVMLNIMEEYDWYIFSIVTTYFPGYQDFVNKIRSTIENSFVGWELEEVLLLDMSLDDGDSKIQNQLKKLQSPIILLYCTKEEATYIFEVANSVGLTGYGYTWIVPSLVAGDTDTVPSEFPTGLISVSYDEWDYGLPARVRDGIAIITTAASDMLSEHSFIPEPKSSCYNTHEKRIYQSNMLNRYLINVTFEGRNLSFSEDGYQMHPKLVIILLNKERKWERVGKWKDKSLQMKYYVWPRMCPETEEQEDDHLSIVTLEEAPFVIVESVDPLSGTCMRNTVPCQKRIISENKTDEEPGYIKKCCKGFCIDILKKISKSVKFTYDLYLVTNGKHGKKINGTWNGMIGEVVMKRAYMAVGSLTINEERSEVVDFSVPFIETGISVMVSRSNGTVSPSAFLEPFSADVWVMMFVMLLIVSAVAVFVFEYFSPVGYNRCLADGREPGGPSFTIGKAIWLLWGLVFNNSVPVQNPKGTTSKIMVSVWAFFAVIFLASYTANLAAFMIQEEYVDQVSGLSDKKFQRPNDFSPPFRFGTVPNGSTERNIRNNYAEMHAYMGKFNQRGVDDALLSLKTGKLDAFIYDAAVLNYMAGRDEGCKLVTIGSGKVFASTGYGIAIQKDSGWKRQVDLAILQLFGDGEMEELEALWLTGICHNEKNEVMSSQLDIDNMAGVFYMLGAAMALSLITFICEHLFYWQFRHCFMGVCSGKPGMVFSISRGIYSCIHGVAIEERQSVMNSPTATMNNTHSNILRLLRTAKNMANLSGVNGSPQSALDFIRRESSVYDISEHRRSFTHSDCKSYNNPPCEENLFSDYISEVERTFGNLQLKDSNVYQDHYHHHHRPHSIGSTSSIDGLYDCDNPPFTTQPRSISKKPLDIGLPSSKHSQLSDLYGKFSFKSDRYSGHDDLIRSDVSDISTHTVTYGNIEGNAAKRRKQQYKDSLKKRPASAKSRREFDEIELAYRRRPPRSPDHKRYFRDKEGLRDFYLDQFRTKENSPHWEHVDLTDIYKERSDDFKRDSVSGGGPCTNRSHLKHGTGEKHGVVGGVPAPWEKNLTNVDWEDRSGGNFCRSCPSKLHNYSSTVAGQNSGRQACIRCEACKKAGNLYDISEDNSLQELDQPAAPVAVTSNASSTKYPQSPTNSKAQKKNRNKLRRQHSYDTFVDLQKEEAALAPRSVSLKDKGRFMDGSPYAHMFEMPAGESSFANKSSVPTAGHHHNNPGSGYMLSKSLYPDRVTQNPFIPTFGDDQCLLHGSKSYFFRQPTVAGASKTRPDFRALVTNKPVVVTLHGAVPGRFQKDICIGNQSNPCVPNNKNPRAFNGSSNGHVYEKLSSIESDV
Procedure, shortened: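 HEK293 cells co-transfected with rat NR1-1a/NR2B plus GFP were whole-cell patch-clamped 16-40 h post-transfection at −60 mV. Currents were evoked by 1 mmol·l^−1 glutamate with 10 μmol·l^−1 glycine in ECS pH 7.3, and steroid was co-applied in DMSO via fast perfusion. IC50 came from relative inhibition.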

[5] = test system: laboratory mice, strain CD-1; test: Forced swimming test (antidepressant effect); assay type: in vivo
Method: as §1
This assay was used to monitor the antidepressant effect. Animals float 6 minutes in acrylic cylinder in water at 24° C. A period of immobility is evaluated. The reduction is a manifestation of anti-depressant properties of drugs.

[6] = test system: NMDA receptors on hipocampal neurones; conditions: 100 μmol·l^−1 pregnanolone sulfate, responses to 100 μmol·l^−1 NMDA, n=5; cited from earlier work
[7] = target: T1, NR1-1a/NR2B NMDA receptor; conditions: 100 μmol·l^−1 pregnanolone sulfate, recombinant NR1/NR2B receptors, n=5, cited from earlier work
[8] = test system: laboratory mice, strain CD-1; test: Passive avoidance test (aversive motivated memory); assay type: in vivo
Method: as §1
Aversive motivated memory test was evaluated on the basis of latency input into the preferred, but unpleasant sensation associated with delivery device.

[9] = HEK293, read-out: Mean % change ± SD

| Compound | Behavioural Test No Evidence of Toxicity [1] | pathway in open field [2] | locomotor activity over time [2] | Open Field Test No Evidence of Hyperlocomotion [2] | Sedative Effect The Rapid Onset of Sedation at a Dose of 100 mg/kg [2] | hyperlocomotion in open field [2] | maximum time avoiding the sector, fourth session of AAPA [3] | number of entries into the forbidden sector, fourth session of AAPA [3] | inhibition at 20 µM [4, 9] | IC50 [4] | NMDA lession Improvement in Cognition in AAPA after NMDA Lession ([3]; 1 mg/kg after NMDA lesion) | antidepressant effect (decrease of flotation) ([5]; reference substance ketamine (10 mg/kg)) | mean inhibition effect [6] | mean inhibition effect (Mean % change ± SD) ([7]; listed as 5beta-pregnanolon-3alpha-yl 3-sulfate) | mean inhibition effect (Mean % change ± SD) ([7]; listed as pregnanolone sulfate) | Passive Avoidance Test No Memory Violation [8] | memory impairment in the passive avoidance test ([8]; 1 mg/kg) | Forced Swimming Test Reduced Floating [5] | inhibition at 5 µM [4, 9] |
| --- | --- | --- | --- | --- | --- | --- | --- | --- | --- | --- | --- | --- | --- | --- | --- | --- | --- | --- | --- |
| C=C1CC[C@H]2[C@@H]3CC[C@@H]4C[C@H](OC(=O)CC(=O)O)CC[C@]4(C)[C@H]3CC[C@]12C [Compound 67, 3-(((3R,5R,8R,9S,10S,13S,14S)-10,13-Dimethyl-17-methylenehexadecahydro-1H-cyclo-penta[a]phenanthren-3-yl)oxy)-3-oxopropanoic acid] | + | significant reduction | significant decrease | + | + | not (unlike groups with dizocilpine) observed hyperlocomotion | significantly increased | significant reduction | 53 ± 10.2% | 18.9 µM |  |  |  |  |  |  |  |  |  |
| C=C1CC[C@H]2[C@@H]3CC[C@@H]4C[C@H](OC(=O)CCCC(=O)O)CC[C@]4(C)[C@H]3CC[C@]12C [Compound 69, 5-(((3R,5R,8R,9S,10S,13S,14S)-10,13-Dimethyl-17-methylenhexadecahydro-1H-cyclopenta[a]phenanthren-3-yl)oxy)-5-oxopentanoic acid] | + | significant reduction | significant decrease | + | + | not (unlike groups with dizocilpine) observed hyperlocomotion |  |  | 62.9 ± 5.1% |  | −/+ |  |  |  |  |  |  |  |  |
| CNC1(c2ccccc2Cl)CCCCC1=O (stereo not drawn) [ketamine, reference compound] |  |  |  |  |  |  |  |  |  |  |  | showed antidepressant effect |  |  |  |  |  |  |  |
| 5beta-pregnanolon-3alpha-yl 3-sulfate [3alfa,5beta-Pregnanolone sulfate] |  |  |  |  |  |  |  |  |  | 55 µM |  |  | 71.3±5.0% | 67% | 67.2±8.2% |  |  |  |  |
| C/C=C1/CC[C@H]2[C@@H]3CC[C@@H]4C[C@H](OC(=O)CCC(=O)O)CC[C@]4(C)[C@H]3CC[C@]12C [Compound 84, 4-(((3R,5R,8R,9S,10S,13S,14S,Z)-17-Ethylidene-10,13-dimethylhexadecahydro-1H-cyclopenta[a]phenanthren-3-yl)oxy)-4-oxobutanoic acid] | + | significant reduction | significant decrease | + | + | not (unlike groups with dizocilpine) observed hyperlocomotion | tendency to increase | reduced number of entries |  |  |  |  |  |  |  | −/+ | Mild memory impairment |  |  |
| C[C@H]1CC[C@H]2[C@@H]3CC[C@@H]4C[C@H](OC(=O)[C@@H](N)CCC(=O)O)CC[C@]4(C)[C@H]3CC[C@]12C [Compound 81, (4S)-4-Amino-5-oxo-5-(((3R,5R,8S,9S,10S,13R,14S,17S)-10,13,17-trimethylhexadecahydro-1H-cyclopenta[a]phenanthren-3-yl)oxy)pentanoic acid] | + | significant reduction | significant decrease | + | + | not (unlike groups with dizocilpine) observed hyperlocomotion | tendency to increase | reduced number of entries |  |  |  |  |  |  |  | + |  | − |  |
| C=C1CC[C@H]2[C@@H]3CC[C@@H]4C[C@H](OC(=O)CCC(=O)O)CC[C@]4(C)[C@H]3CC[C@]12C [Compound 68, 4-(((3R,5R,8R,9S,10S,13S,14S)-10,13-Dimethyl-17-methylenhexadecahydro-1H-cyclopenta[a]phenanthren-3-yl)oxy)-4-oxobutanoic acid] | + | significant reduction | significant decrease | + | + | not (unlike groups with dizocilpine) observed hyperlocomotion | tendency to increase | reduced number of entries |  | 18.8 µM |  |  |  |  |  | + |  |  | 24.2 ± 14.3% |
